Measured values from patent US11135214B2, “Methods for enhancing the bio availability and exposure of a voltage-gated potassium channel opener” (priority 2018, dated 2021).
Where “and” joins values, the source holds several entries; their conditions need not be identical. Equal entries are not always repeated. Where two headings read alike, the source gives them in different places.

Assay: Food effect study, oral capsule, plasma PK in non-human primate
Type: in vivo, Cynomolgus monkeys
Settings: for AUC(0-inf): read-out: AUCinfobs
Description: The following study was conducted to determine the effect of food when Compound A is orally administered to a non-human primate.
Three (n=3) Cynomolgus monkeys of Vietnamese origin were used in this study. At the time of initial dose administration, the monkeys weighed 4.7 to 5.1 kg and were about 4.5 years of age.
A certified primate diet (Teklad® Certified Diet 2050C) was fed during the study. For Group 1, the three monkeys were fasted overnight with food returned 4 hours post-dose. For Group 2, the same three monkeys were fasted overnight and offered food about 1 hour prior to dosing and food was returned at 4 hours post-dose. The following Table 1 gives the food consumption for Group 2:
The oral dosage units consisted of about 3 mg/kg of Compound A in a capsule. The capsules were filled the morning of the dose administration and kept at room temperature until dosing. The remaining capsules were placed into the −20° C. storage.
The capsules were placed as far back in the animal's mouth as possible using a pill gun or a modified gavage tube. Approximately 10 mL of water was administered via syringe to ensure complete delivery of the intended dose. Each animal received 1 capsule per dose. The same animals were dosed twice with a 96 hour washout period between doses.
Group 1: All animals were weighed the afternoon prior to dose administration. Animal #2 struggled with dosing. After several attempts, the animal was given a short break and finally dosed successfully.
Group 2: All animals were weighed the morning of dose administration. All animals were dosed without incident.
Whole blood (˜2.0 mL) was collected using syringe and needle from cephalic or saphenous veins and transferred into vacutainer tubes containing K2EDTA and kept on wet ice until processed for plasma. Blood samples were collected at time of dosing (0.0 hours, time zero) and at 0.5, 1, 2, 4, 8, 12, 24 and 48 hours post-dose.
The whole blood samples were placed in a K2EDTA tube and centrifuged at 3200 RPM for 10 minutes at approximately 5° C. Plasma samples were divided into 2 aliquots and each aliquot directly transferred to appropriately labeled, individual tubes containing study number, collection time point, animal ID number, and sample description. One aliquot was placed into storage at −20±5° C. until shipment for analysis. The other aliquot was retained at −20±5° C. Red blood cells were disposed.
All samples were processed per standard protocol for bioanalytical analysis.

[1] = Cynomolgus (Vietnamese origin), cynomolgus monkey, plasma, po, 3 mg/kg, Group 2 (fed), 3 mg/kg capsule, individual subjects
[2] = Cynomolgus, Vietnamese origin, cynomolgus monkey, plasma, po, 3 mg/kg, Group 1 (fasted), 3 mg/kg capsule, Mean
[3] = Group 1 (fasted), 3 mg/kg capsule, individual subjects, 3 mg/kg
[4] = Group 2 (fed), 3 mg/kg capsule, individual subjects, 3 mg/kg
[5] = cynomolgus monkey, plasma, po, 3 mg/kg, Group 2 (fed), 3 mg/kg capsule, Mean

## Cc1cc(N2CCc3cc(F)ccc3C2)cc(C)c1NC(=O)CC(C)(C)C [Compound A, N-[4-(6-fluoro-3,4-dihydro-1H-isoquinolin-2-yl)-2,6-dimethylphenyl]-3,3-dimethylbutanamide]
Cynomolgus (Vietnamese origin), cynomolgus monkey, plasma, po, 3 mg/kg, Group 2 (fed), 3 mg/kg capsule, Mean, read-out: Cmax
  Cmax: 65.4 ng/mL
Cynomolgus (Vietnamese origin), cynomolgus monkey, plasma, po, 3 mg/kg, Group 2 (fed), 3 mg/kg capsule, Mean, read-out: Tmax
  Tmax: 8 h
[1]
  AUC(0-t): 1120 ng·h/mL
  AUC(0-inf): 1180 ng·h/mL
Cynomolgus (Vietnamese origin), cynomolgus monkey, plasma, po, 3 mg/kg, Group 2 (fed), 3 mg/kg capsule, individual subjects, read-out: Cmax
  Cmax: 50.4 ng/mL
[2]
  AUC(0-t): 1490 ng·h/mL
  AUC(0-inf): 913 ng·h/mL
Cynomolgus, Vietnamese origin, cynomolgus monkey, plasma, po, 3 mg/kg, Group 1 (fasted), 3 mg/kg capsule, Mean, read-out: Cmax
  Cmax: 55.7 ng/mL
Cynomolgus, Vietnamese origin, cynomolgus monkey, plasma, po, 3 mg/kg, Group 1 (fasted), 3 mg/kg capsule, Mean, read-out: Tmax
  Tmax: 10.7 h
Cynomolgus, Vietnamese origin, cynomolgus monkey, plasma, po, 3 mg/kg, Group 1 (fasted), 3 mg/kg capsule, individual subjects, read-out: Cmax
  Cmax: 75.1 ng/mL
Cynomolgus, Vietnamese origin, cynomolgus monkey, plasma, po, 3 mg/kg, Group 1 (fasted), 3 mg/kg capsule, individual subjects, read-out: Tmax
  Tmax: 12 h
Group 1 (fasted), 3 mg/kg capsule, Mean
  t½λz: 9.7 h
Group 1 (fasted), 3 mg/kg capsule, individual subjects
  t½λz: 9.7 h
[3]
  AUClast: 1940 ng·h/mL and 1650 ng·h/mL and 869 ng·h/mL
  Cmax: 53.7 ng/mL and 38.4 ng/mL
Group 2 (fed), 3 mg/kg capsule, Mean
  t½λz: 10.1 h
Group 2 (fed), 3 mg/kg capsule, individual subjects
  t½λz: 10.1 h
[4]
  AUClast: 2010 ng·h/mL and 1790 ng·h/mL
  Cmax: 67.5 ng/mL and 78.2 ng/mL
  Tmax: 4 h
Cynomolgus monkey, plasma, oral, 3 mg/kg, Group 1 (fasted), 3 mg/kg, 0 h, N=3, read-out: Mean plasma concentration
  concentration at 0 h: 0 ng/mL
Cynomolgus monkey, plasma, oral, 3 mg/kg, Group 1 (fasted), 3 mg/kg, 0.5 h, N=3, read-out: Mean plasma concentration
  concentration at 0.5 h: 0 ng/mL
Cynomolgus monkey, plasma, oral, 3 mg/kg, Group 1 (fasted), 3 mg/kg, 1 h, N=3, read-out: Mean plasma concentration
  concentration at 1 h: 6.89 ng/mL
Cynomolgus monkey, plasma, oral, 3 mg/kg, Group 1 (fasted), 3 mg/kg, 2 h, N=3
  concentration at 2 h: 15.3 ng/mL
Cynomolgus monkey, plasma, oral, 3 mg/kg, Group 1 (fasted), 3 mg/kg, 4 h, N=3, read-out: Mean plasma concentration
  concentration at 4 h: 16.6 ng/mL
Cynomolgus monkey, plasma, oral, 3 mg/kg, Group 1 (fasted), 3 mg/kg, 8 h, N=3, read-out: Mean plasma concentration
  concentration at 8 h: 49.9 ng/mL
Cynomolgus monkey, plasma, oral, 3 mg/kg, Group 1 (fasted), 3 mg/kg, 12 h, N=3, read-out: Mean plasma concentration
  concentration at 12 h: 55.7 ng/mL
Cynomolgus monkey, plasma, oral, 3 mg/kg, Group 1 (fasted), 3 mg/kg, 24 h, N=3
  concentration at 24 h: 42.5 ng/mL
Cynomolgus monkey, plasma, oral, 3 mg/kg, Group 1 (fasted), 3 mg/kg, 48 h, N=3
  concentration at 48 h: 8.94 ng/mL
Cynomolgus monkey, plasma, oral, 3 mg/kg, Group 2 (fed), 3 mg/kg, 0 h, N=3, read-out: Mean plasma concentration
  concentration at 0 h: 0 ng/mL
Cynomolgus monkey, plasma, oral, 3 mg/kg, Group 2 (fed), 3 mg/kg, 0.5 h, N=3, read-out: Mean plasma concentration
  concentration at 0.5 h: 0.35 ng/mL
Cynomolgus monkey, plasma, oral, 3 mg/kg, Group 2 (fed), 3 mg/kg, 1 h, N=3, read-out: Mean plasma concentration
  concentration at 1 h: 1.25 ng/mL
Cynomolgus monkey, plasma, oral, 3 mg/kg, Group 2 (fed), 3 mg/kg, 2 h, N=3
  concentration at 2 h: 7.73 ng/mL
Cynomolgus monkey, plasma, oral, 3 mg/kg, Group 2 (fed), 3 mg/kg, 4 h, N=3, read-out: Mean plasma concentration
  concentration at 4 h: 44.3 ng/mL
Cynomolgus monkey, plasma, oral, 3 mg/kg, Group 2 (fed), 3 mg/kg, 8 h, N=3, read-out: Mean plasma concentration
  concentration at 8 h: 55.4 ng/mL
Cynomolgus monkey, plasma, oral, 3 mg/kg, Group 2 (fed), 3 mg/kg, 12 h, N=3, read-out: Mean plasma concentration
  concentration at 12 h: 52.8 ng/mL
Cynomolgus monkey, plasma, oral, 3 mg/kg, Group 2 (fed), 3 mg/kg, 24 h, N=3
  concentration at 24 h: 45 ng/mL
Cynomolgus monkey, plasma, oral, 3 mg/kg, Group 2 (fed), 3 mg/kg, 48 h, N=3
  concentration at 48 h: 11.6 ng/mL
Cynomolgus monkey, plasma, oral, 3 mg/kg, fed, 3 mg/kg capsule, plasma, 0 h, individual animals, read-out: Concentration
  concentration at 0 h: 0 ng/mL
Cynomolgus monkey, plasma, oral, 3 mg/kg, fed, 3 mg/kg capsule, plasma, 1 h, individual animals, read-out: Concentration
  concentration at 1 h: 1.05 ng/mL
Cynomolgus monkey, plasma, oral, 3 mg/kg, fed, 3 mg/kg capsule, plasma, 8 h, individual animals, read-out: Concentration
  concentration at 8 h: 50.4 ng/mL
Cynomolgus monkey, plasma, oral, 3 mg/kg, fed, 3 mg/kg capsule, plasma, 12 h, individual animals, read-out: Concentration
  concentration at 12 h: 48.8 ng/mL
Cynomolgus monkey, plasma, po, 3 mg/kg, Group 1 (fasted), 3 mg/kg capsule, individual subjects
  AUC(0-inf): 913 ng·h/mL
[5]
  AUC(0-t): 1640 ng·h/mL
  AUC(0-inf): 1180 ng·h/mL
Cynomolgus monkey, plasma, po, 3 mg/kg, fasted, 3 mg/kg oral, plasma, 0 h, individual animals, read-out: Concentration
  concentration at 0 h: 0 ng/mL
Cynomolgus monkey, plasma, po, 3 mg/kg, fasted, 3 mg/kg oral, plasma, 0.5 h, individual animals, read-out: Concentration
  concentration at 0.5 h: 0 ng/mL
Cynomolgus monkey, plasma, po, 3 mg/kg, fasted, 3 mg/kg oral, plasma, 4 h, individual animals, read-out: Concentration
  concentration at 4 h: 12.6 ng/mL
Cynomolgus monkey, plasma, po, 3 mg/kg, fasted, 3 mg/kg oral, plasma, 8 h, individual animals, read-out: Concentration
  concentration at 8 h: 38.4 ng/mL
Cynomolgus monkey, plasma, po, 3 mg/kg, fasted, 3 mg/kg oral, plasma, 12 h, individual animals, read-out: Concentration
  concentration at 12 h: 38.3 ng/mL
fasted, 3 mg/kg oral, plasma, 0 h, individual animals
  Concentration: 0 ng/mL
fasted, 3 mg/kg oral, plasma, 0.5 h, individual animals
  Concentration: 0 ng/mL
fasted, 3 mg/kg oral, plasma, 1 h, individual animals, 3 mg/kg
  Concentration: 15.6 ng/mL and 5.07 ng/mL and 0 ng/mL
fasted, 3 mg/kg oral, plasma, 2 h, individual animals, 3 mg/kg
  Concentration: 6.00 ng/mL and 23.5 ng/mL and 16.4 ng/mL
fasted, 3 mg/kg oral, plasma, 4 h, individual animals, 3 mg/kg
  Concentration: 19.2 ng/mL and 18.1 ng/mL
fasted, 3 mg/kg oral, plasma, 8 h, individual animals, 3 mg/kg
  Concentration: 63.1 ng/mL and 48.1 ng/mL
fasted, 3 mg/kg oral, plasma, 12 h, individual animals, 3 mg/kg
  Concentration: 75.1 ng/mL and 53.7 ng/mL
fasted, 3 mg/kg oral, plasma, 24 h, individual animals, 3 mg/kg
  Concentration: 22.5 ng/mL and 53.2 ng/mL and 51.8 ng/mL
fasted, 3 mg/kg oral, plasma, 48 h, individual animals, 3 mg/kg
  Concentration: 3.13 ng/mL and 12.5 ng/mL and 11.2 ng/mL
fed, 3 mg/kg capsule, plasma, 0 h, individual animals
  Concentration: 0 ng/mL
fed, 3 mg/kg capsule, plasma, 0.5 h, individual animals, 3 mg/kg
  Concentration: 1.05 ng/mL and 0 ng/mL (2×)
fed, 3 mg/kg capsule, plasma, 1 h, individual animals, 3 mg/kg
  Concentration: 1.21 ng/mL and 1.48 ng/mL
fed, 3 mg/kg capsule, plasma, 2 h, individual animals, 3 mg/kg
  Concentration: 11.8 ng/mL and 0 ng/mL and 11.4 ng/mL
fed, 3 mg/kg capsule, plasma, 4 h, individual animals, 3 mg/kg
  Concentration: 34.8 ng/mL and 19.9 ng/mL and 78.2 ng/mL
fed, 3 mg/kg capsule, plasma, 8 h, individual animals, 3 mg/kg
  Concentration: 52.2 ng/mL and 63.7 ng/mL
fed, 3 mg/kg capsule, plasma, 12 h, individual animals, 3 mg/kg
  Concentration: 67.5 ng/mL and 42.2 ng/mL
fed, 3 mg/kg capsule, plasma, 24 h, individual animals, 3 mg/kg
  Concentration: 24.2 ng/mL and 61.9 ng/mL and 48.8 ng/mL
fed, 3 mg/kg capsule, plasma, 48 h, individual animals, 3 mg/kg
  Concentration: 4.26 ng/mL and 16.9 ng/mL and 13.5 ng/mL
